Data set [1] has as its system Streptococcus Group D 9960. The data set can be described thus: agar-dilution MIC. Type of data set: cell-based.
For data set [2], the system named is Staphylococcus aureus X1.1. The data set can be described thus: agar-dilution MIC. The format is cell-based.
Data set [3] deals with Streptococcus Group D X66. The data set can be described thus: agar-dilution MIC. Type of data set: cell-based.
Experimental: (§1) In Table VII activity is measured by the minimal inhibitory concentration (MIC), i.e. the lowest concentration of compound at which growth of the microorganism is inhibited by the test compound.
Another data set in a line: toxicity, LD50 in mice. The format is in vivo. The conditions noted are these: administered intravenously.
Data set [4] has as its system Staphylococcus epidermidis EP11. Kind of data set: agar-dilution MIC. Type of data set: cell-based.
Experimental: as §1
The test system of data set [5] is Staphylococcus epidermidis EP12. The data set can be described thus: agar-dilution MIC. The format is cell-based.
Experimental: as §1
Data set [6] concerns Streptococcus pyogenes C203. Kind of data set: agar-dilution MIC. The format is cell-based.
Experimental: as §1
In data set [7] the test system is Streptococcus pneumoniae Park I. The format is cell-based. The conditions noted are these: agar dilution.
Experimental: as §1
In data set [8] the test system is Staphylococcus aureus V41. The data set can be described thus: agar-dilution MIC. The format is cell-based. The conditions noted are these: Staphylococcus aureus V41, penicillin-resistant strain.
Experimental: as §1
For data set [9], the system named is Staphylococcus aureus X400. The data set can be described thus: agar-dilution MIC. Type of data set: cell-based. The conditions noted are these: Staphylococcus aureus X400, methicillin-resistant strain.
Experimental: as §1
In the next data set the test system is Staphylococcus aureus. Kind of data set: experimental bacterial infection in mice, ED50. The format is in vivo. The conditions noted are these: two doses.
A further data set concerns Streptococcus pyogenes. Kind of data set: experimental bacterial infection in mice, ED50. The format is in vivo. The conditions noted are these: two doses.

≈ marks a conversion by molar mass, not a printed value. Bounds are passed on as bounds.

Consider `CCC(C)CCCCCCC(=O)N[C@@H](Cc1c[nH]c2ccccc12)C(=O)N[C@@H](CC(N)=O)C(=O)N[C@@H](CC(=O)O)C(=O)N[C@@H]1C(=O)NCC(=O)N[C@@H](CCCNC(=O)CCC(=O)O)C(=O)N[C@@H](CC(=O)O)C(=O)N[C@H](C)C(=O)N[C@@H](CC(=O)O)C(=O)NCC(=O)N[C@H](CO)C(=O)N[C@@H]([C@H](C)CC(=O)O)C(=O)N[C@@H](CC(=O)c2ccccc2N)C(=O)O[C@@H]1C` (stereo partly shown) [Compound 15], for which the MIC in data set [1] was determined as 4 µg/mL (≈ 2.31 µM); in [2], 1 µg/mL (≈ 0.576 µM); in data set [3] it was 4 µg/mL (≈ 2.31 µM); in [4] it was 4 µg/mL (≈ 2.31 µM); in data set [5], 4 µg/mL (≈ 2.31 µM); in data set [6], 1 µg/mL (≈ 0.576 µM). The MIC in data set [7] came to 0.25 µg/mL (≈ 0.144 µM); in [8], 2 µg/mL (≈ 1.15 µM); in data set [9] it was 8 µg/mL (≈ 4.61 µM). In addition, the “LD50 in Mice” value in the data set “toxicity, LD50 in mice” is listed as 250 mg/kg. The “ED50 Staphylococcus aureus Subcutaneous” value in the data set on Staphylococcus aureus is listed as above 18 mg/kg × 2. The “ED50 Streptococcus pyogenes Subcutaneous” value in the data set with Streptococcus pyogenes is recorded as 1.02 mg/kg × 2.
`CCCCCCCCCCCC(=O)N[C@@H](Cc1c[nH]c2ccccc12)C(=O)N[C@@H](Cc1c[nH]c2ccccc12)C(=O)N[C@H](CC(N)=O)C(=O)N[C@@H](CC(=O)O)C(=O)N[C@@H]1C(=O)NCC(=O)N[C@@H](CCCN)C(=O)N[C@@H](CC(=O)O)C(=O)N[C@H](C)C(=O)N[C@@H](CC(=O)O)C(=O)NCC(=O)N[C@H](CO)C(=O)N[C@@H]([C@H](C)CC(=O)O)C(=O)N[C@@H](CC(=O)c2ccccc2N)C(=O)O[C@@H]1C` [Compound 24]: the MIC in data set [1] worked out at 4 µg/mL (≈ 2.18 µM); in data set [2], 1 µg/mL (≈ 0.545 µM); in data set [3], 16 µg/mL (≈ 8.72 µM); in data set [4], 4 µg/mL (≈ 2.18 µM); in [5], 4 µg/mL (≈ 2.18 µM); in data set [6], 2 µg/mL (≈ 1.09 µM). For the same molecule, the MIC in data set [7] is 1 µg/mL (≈ 0.545 µM); in data set [8] it was 2 µg/mL (≈ 1.09 µM); in [9], 4 µg/mL (≈ 2.18 µM). Further, in the data set “toxicity, LD50 in mice”, the “LD50 in Mice” value turned out to be 450 mg/kg. Also, in the data set on Staphylococcus aureus, the “ED50 Staphylococcus aureus Subcutaneous” value is listed as 2.3 mg/kg × 2. In the data set with Streptococcus pyogenes, the “ED50 Streptococcus pyogenes Oral” value was above 200 mg/kg × 2.
For the molecule `CCCCCCCCCCCC(=O)Nc1cccc(C(=O)N[C@@H](Cc2c[nH]c3ccccc23)C(=O)N[C@H](CC(N)=O)C(=O)N[C@@H](CC(=O)O)C(=O)N[C@@H]2C(=O)NCC(=O)N[C@@H](CCCN)C(=O)N[C@@H](CC(=O)O)C(=O)N[C@H](C)C(=O)N[C@@H](CC(=O)O)C(=O)NCC(=O)N[C@H](CO)C(=O)N[C@@H]([C@H](C)CC(=O)O)C(=O)N[C@@H](CC(=O)c3ccccc3N)C(=O)O[C@@H]2C)c1` [Compound 5], the MIC in data set [1] turned out to be 1 µg/mL (≈ 0.566 µM); in [2] it was 0.5 µg/mL (≈ 0.283 µM); in data set [3] it was 4 µg/mL (≈ 2.26 µM); in data set [4], 2 µg/mL (≈ 1.13 µM); in data set [5], 1 µg/mL (≈ 0.566 µM); in [6], 0.25 µg/mL (≈ 0.141 µM). Besides, the MIC in data set [7] came to 0.25 µg/mL (≈ 0.141 µM); in data set [8], 0.5 µg/mL (≈ 0.283 µM); in [9] it was 1 µg/mL (≈ 0.566 µM). Moreover, in “toxicity, LD50 in mice”, the “LD50 in Mice” value is given as 277 mg/kg. Also, in the data set with Staphylococcus aureus, the “ED50 Staphylococcus aureus Subcutaneous” value was found to be 1.67 mg/kg × 2. In addition, in the data set on Streptococcus pyogenes, the “ED50 Streptococcus pyogenes Oral” value is above 200 mg/kg × 2.
`CCCCCCCCCCCC(=O)NCCCCCCCCCCC(=O)N[C@@H](Cc1c[nH]c2ccccc12)C(=O)N[C@H](CC(N)=O)C(=O)N[C@@H](CC(=O)O)C(=O)N[C@@H]1C(=O)NCC(=O)N[C@@H](CCCN)C(=O)N[C@@H](CC(=O)O)C(=O)N[C@H](C)C(=O)N[C@@H](CC(=O)O)C(=O)NCC(=O)N[C@H](CO)C(=O)N[C@@H]([C@H](C)CC(=O)O)C(=O)N[C@@H](CC(=O)c2ccccc2N)C(=O)O[C@@H]1C` [Compound 3]: the MIC came to 8 µg/mL (≈ 4.37 µM) in [1]; 2 µg/mL (≈ 1.09 µM) in [2]; 8 µg/mL (≈ 4.37 µM) in data set [3]; 8 µg/mL (≈ 4.37 µM) in data set [4]; 8 µg/mL (≈ 4.37 µM) in data set [5]; 2 µg/mL (≈ 1.09 µM) in [6]. Besides, the MIC in data set [7] amounted to 0.5 µg/mL (≈ 0.273 µM); in [8], 2 µg/mL (≈ 1.09 µM); in [9], 8 µg/mL (≈ 4.37 µM). For the same molecule, the “LD50 in Mice” value in “toxicity, LD50 in mice” was 600 mg/kg. The “ED50 Staphylococcus aureus Subcutaneous” value with Staphylococcus aureus was above 18 mg/kg × 2. Further, the “ED50 Streptococcus pyogenes Oral” value in the data set on Streptococcus pyogenes was above 200 mg/kg × 2. For the same molecule, the “ED50 Streptococcus pyogenes Subcutaneous” value with Streptococcus pyogenes was determined as 6.2 mg/kg × 2.
Consider `CCCCCCCCCC(=O)N[C@@H](Cc1ccccc1)C(=O)N[C@@H](Cc1c[nH]c2ccccc12)C(=O)N[C@H](CC(N)=O)C(=O)N[C@@H](CC(=O)O)C(=O)N[C@@H]1C(=O)NCC(=O)N[C@@H](CCCN)C(=O)N[C@@H](CC(=O)O)C(=O)N[C@H](C)C(=O)N[C@@H](CC(=O)O)C(=O)NCC(=O)N[C@H](CO)C(=O)N[C@@H]([C@H](C)CC(=O)O)C(=O)N[C@@H](CC(=O)c2ccccc2N)C(=O)O[C@@H]1C` [Compound 19, NTrp-[N-(n-Decanoyl)-L-phenylalanyl]-A-21978C Nucleus], for which the MIC in [1] was 2 µg/mL (≈ 1.13 µM); in data set [2] it was 0.5 µg/mL (≈ 0.283 µM); in data set [3], 8 µg/mL (≈ 4.53 µM); in data set [4], 1 µg/mL (≈ 0.566 µM); in [5] it was 0.5 µg/mL (≈ 0.283 µM); in data set [6] it was 0.25 µg/mL (≈ 0.141 µM). Besides, the results for the MIC in data set [7], in [8] and in [9] were 0.75 µg/mL (≈ 0.424 µM), 0.5 µg/mL (≈ 0.283 µM) and 1 µg/mL (≈ 0.566 µM), respectively. In addition, in the data set “toxicity, LD50 in mice”, the “LD50 in Mice” value is recorded as 600 mg/kg. Further, the “ED50 Streptococcus pyogenes Oral” value in the data set on Streptococcus pyogenes was above 200 mg/kg × 2. In the data set on Streptococcus pyogenes, the “ED50 Streptococcus pyogenes Subcutaneous” value amounted to 0.39 mg/kg × 2.

By MIC is commonly meant the smallest concentration in the dilution series that meets the test's criterion for growth inhibition.

Source of the values: patent USRE32311E.
